Each block holds one molecule with its values, some of them ahead of it. Starred links: 1 amine or outer side, 2 acyl side, 3 side chain; linkers in the order of their positions; H or OH if unused. Non-standard residues stand in square brackets, D forms with d. Residues, ends and D or L forms follow the SMILES beside them. *: point of attachment. DOTA = O=C(O)CN1CCN(CC(=O)O)CCN(CC(=O)*)CCN(CC(=O)O)CC1; d(γGlu) = O=C(O)[C@@H](CCC(=O)[*:2])N[*:1]; 1Nal = N[C@@H](Cc1cccc2ccccc12)C(=O)O; NMeNle = CCCC[C@H](NC)C(=O)O; GABA = NCCCC(=O)O; βAla = NCCC(=O)O
Experiments:
in vivo [1] = settings: female, athymic BALB/c nude, mouse, iv, total radioactivity
Description: (§1) For the induction of tumour xenografts, A431-CCK2R and A431-mock cells were injected subcutaneously in athymic BALB/c nude mice (Charles River or Janvier Labs), respectively (2 million cells in 200 μL). When tumours had reached a size of approximately 0.2 ml, biodistribution studies were carried out. Groups of 3-5 mice were injected intravenously via a lateral tail vein with the peptidomimetics, labelled with ^177Lu (0.5-1 MBq and 0.02-0.03 nmol peptidomimetic) or ^68Ga (˜0.5 MBq and 0.02-0.03 nmol peptidomimetic). […] After selected time points post-injection (p.i.) the animals were sacrificed by cervical dislocation, tumours and other tissues (blood, lung, heart, muscle, bone, spleen, intestine, liver, kidneys, stomach, pancreas) were removed, weighed, and their radioactivity measured in a gamma counter.
In further biodistribution studies the tumour uptake and imaging properties of different ^68Ga-labelled pepitdiomimetics was evaluated. For this purpose female athymic BALB/c nude mice (Janvier Labs, Le Genest Saint Isle, France) were inoculated with A431-CCK2R cells (left flank) at an age of 8-10 weeks.

[2] = test system: A431-CCK2R tumour xenografts; settings: mouse, in vivo
Description: (§2) For the induction of tumour xenografts, A431-CCK2R and A431-mock cells were injected subcutaneously in athymic BALB/c nude mice (Charles River or Janvier Labs), respectively (2 million cells in 200 μL). When tumours had reached a size of approximately 0.2 ml, biodistribution studies were carried out. Groups of 3-5 mice were injected intravenously via a lateral tail vein with the peptidomimetics, labelled with ^177Lu (0.5-1 MBq and 0.02-0.03 nmol peptidomimetic) or ^68Ga (˜0.5 MBq and 0.02-0.03 nmol peptidomimetic). To check for receptor specificity blocking studies using co-injection of a 1000-fold molar excess of the unlabelled peptide (˜20 nmol) together with the administration of the ^177Lu-labelled peptide were performed (FIG. 3). After selected time points post-injection (p.i.) the animals were sacrificed by cervical dislocation, tumours and other tissues (blood, lung, heart, muscle, bone, spleen, intestine, liver, kidneys, stomach, pancreas) were removed, weighed, and their radioactivity measured in a gamma counter.
(§3) The biodistribution profile of ^177Lu-DOTA-MGSA and ^177Lu-DOTA-MGS5 over up to 7 days was studied in female athymic BALB/c nude mice, inoculated with A431-CCK2R cells (left flank) at an age of 6-8 weeks (5 animals per peptidomimetic and for each time point of 1 h, 24 h, 3 d and 7 d). When tumours had reached a size of approximately 0.1-0.2 ml, biodistribution studies were carried out.

in vivo [3] = settings: female, athymic BALB/c nude, mouse, iv, total radioactivity; remark: listed apart in the source
Description: (§4) Biodistribution studies evaluating the tumour uptake of the radiolabelled inventive CCK2R targeting peptide analogues were performed in xenografted nude mice.
as §1
(§5) Results were expressed as percentage of injected activity per gram tissue (% IA/g) and tumour to organ activity ratios were calculated from the activity measured in the dissected tissues (FIGS. 2 and 3).

in vivo [4] = settings: female, athymic BALB/c nude, mouse, iv, total radioactivity; remark: listed apart in the source
Description: as §2, §3

CCK2R = molecular target: T1, CCK2R (Homo sapiens, UniProt P32239); experiment: Competition binding assay against [^125I][3-iodo-Tyr^12,Leu^15]gastrin-I on A431-CCK2R cells; settings: displacement of [^125I][3-iodo-Tyr^12,Leu^15]gastrin-I, 1 h at RT
T1 construct: expressed in transfected cells; host or cells: A431 cells (A431-CCK2R), provided by Dr. Luigi Aloj
T1 sequence (P32239 1-447): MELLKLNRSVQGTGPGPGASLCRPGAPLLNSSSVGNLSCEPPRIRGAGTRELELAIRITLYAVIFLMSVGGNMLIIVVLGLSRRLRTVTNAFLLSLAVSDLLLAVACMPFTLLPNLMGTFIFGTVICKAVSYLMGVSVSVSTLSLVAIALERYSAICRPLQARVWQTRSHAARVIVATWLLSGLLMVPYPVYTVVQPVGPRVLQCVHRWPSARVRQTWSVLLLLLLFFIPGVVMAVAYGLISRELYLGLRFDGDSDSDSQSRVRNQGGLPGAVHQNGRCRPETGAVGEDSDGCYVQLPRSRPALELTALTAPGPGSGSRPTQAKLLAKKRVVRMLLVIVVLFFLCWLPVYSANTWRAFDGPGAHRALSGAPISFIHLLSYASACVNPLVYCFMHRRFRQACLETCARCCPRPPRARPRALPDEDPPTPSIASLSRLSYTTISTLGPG
Description: Affinity for CCK2R was studied in A431-CCK2R cells. […] Radioiodination of gastrin-I was carried out using the chloramine-T method. Non-carrier-added [^125I][3-iodo-Tyr^12,Leu^15]gastrin-I was obtained by HPLC purification and stored in aliquots at −20° C. Binding assays were carried out in 96-well filter plates (MultiScreenHTS-FB, Merck Group, Darmstadt, Germany) pretreated with 10 mM TRIS/139 mM NaCl pH 7.4 (2×250 μL). For the assay a number of 400,000 A431-CCK2R cells per well was prepared in 35 mM HEPES buffer pH 7.4 containing 10 mM MgCl2, 14 μM bacitracin and 0.5% BSA (a hypotonic solution disturbing the integrity of the cell membranes). The cells were incubated in triplicates with increasing concentrations of the peptidomimetics (0.0003 to 1,000 nM) and [^125I-Tyr^12]gastrin-I (˜25,000 cpm) for 1 h at RT. Incubation was interrupted by filtration of the medium and rapid rinsing with ice-cold 10 mM TRIS/139 mM NaCl pH 7.4 (2×200 μl) and the filters were counted in the gamma-counter. Half maximal inhibitory concentration (IC50) values were calculated following nonlinear regression with Origin software (Microcal Origin 6.1, Northampton, MA) and a representative assay was chosen for comparison.

[5] = test system: A431-CCK2R tumour xenografts; settings: ^68Ga-labelled, previously reported (Klingler M et al., J Nucl Med 2019); cited from earlier work
[6] = Biodistribution of ^177Lu-labelled peptidomimetics at 4 h p.i. in xenografted nude mice; settings: female, athymic BALB/c nude, mouse, iv, total radioactivity
Description: as §4, §1, §5

[7] = Stability against enzymatic degradation in vivo (radio-HPLC of blood); set-up: species or system BALB/c mice; settings: ^177Lu-labelled; for percentage of intact radioligand present in the blood: 30 min p.i.
Description: To further characterise the stability of the radiolabelled peptidomimetic in vivo, metabolic studies were carried out in 5-6-week-old female BALB/c mice (Charles River, Sulzfeld, Germany) injected intravenously with ^177Lu-labelled and ^68Ga-labelled peptidomimetics. All animal experiments were conducted in compliance with the Austrian animal protection laws and with the approval of the Austrian Ministry of Science. To allow monitoring of the metabolites by radio-HPLC, mice were injected with a higher amount of radioactivity (20-40 MBq ^177Lu, corresponding to ˜1 nmol total peptide, or ˜10 MBq ^68Ga, corresponding to ˜1 nmol total peptide) through a lateral tail vein and euthanized by cervical dislocation at selected time points p.i. […] A sample of blood was collected and the degradation was assessed by radio-HPLC. For this purpose blood samples were precipitated with ACN, centrifuged at 2000 g for 2 min and diluted with water (1:1/v:v) prior to HPLC analysis using a Dionex chromatography system including radiodetection and UV detection equipped with a Phenomenex Jupiter Proteo C12 column (90 Å, 4 μm, 250×4.6 mm) column using a water/acetonitrile/0.1% TFA gradient system.

[8] = test system: A431-CCK2R tumour xenografts; experiment: Biodistribution of ^177Lu-labelled peptidomimetics up to 7 days p.i.; settings: difference not significant
Description: as §2, §3

[9] = test system: A431-CCK2R and A431-mock tumour xenografts; settings: ^177Lu-labelled, 4 h p.i., Klingler M et al., J Med Chem 2020; cited from earlier work
[10] = 10 min after intravenous injection; cited from earlier work
[11] = cited from earlier work
[12] = tumour uptake in A431-CCK2R xenografts

Molecule: CCCC[C@@H](C(=O)N[C@@H](CC(=O)O)C(=O)N[C@@H](Cc1cccc2ccccc12)C(N)=O)N(C)C(=O)[C@H](Cc1c[nH]c2ccccc12)NC(=O)CCNC(=O)CC(O)CNC(=O)CC(O)CNC(=O)CN1CCN(CC(=O)O)CCN(CC(=O)O)CCN(CC(=O)O)CC1 (stereo partly drawn) [DOTA-MGSA, DOTA-Gabob-Gabob-βAla-Trp-(NMe)Nle-Asp-1Nal-NH2]
IC50 (CCK2R): 210 ± 10 pM

Molecule: CCCC[C@@H](C(=O)N[C@@H](CC(=O)O)C(=O)N[C@@H](Cc1cccc2ccccc12)C(N)=O)N(C)C(=O)[C@H](Cc1c[nH]c2ccccc12)NC(=O)CNC(=O)[C@H](Cc1ccc(O)cc1)NC(=O)[C@H](C)NC(=O)[C@@H](CCC(=O)O)NC(=O)CN1CCN(CC(=O)O)CCN(CC(=O)O)CCN(CC(=O)O)CC1 [^68Ga-DOTA-MGS5, metal not drawn]
kidney uptake [5]: 5.71±1.38 % IA/g
tumour uptake [5]: 23.3±4.7 % IA/g
tissue to tissue ratio at 1 h (in vivo [1]): 4.1 ± 0.3

Molecule: CCCC[C@@H](C(=O)N[C@@H](CC(=O)O)C(=O)N[C@@H](Cc1cccc2ccccc12)C(N)=O)N(C)C(=O)[C@H](Cc1c[nH]c2ccccc12)NC(=O)CNC(=O)[C@H](Cc1ccc(O)cc1)NC(=O)[C@H](C)NC(=O)[C@@H](CCC(=O)O)NC(=O)CN1CCN(CC(=O)O)CCN(CC(=O)O)CCN(CC(=O)O)CC1 [^177Lu-DOTA-MGS5, metal not drawn]
tissue uptake at 4 h ([6]; kidney, kidney uptake, ^177Lu-labelled, 4 h p.i.): 3.5 ± 0.9 %ID/g
tissue to tissue ratio at 4 h ([6]; tumour and kidney): 7 ± 2.2
percentage intact in the blood ([7]; 10 min p.i.): 85.9%
percentage of intact radioligand present in the blood [7]: 77.0%
uptake levels in the blood, comparison of the two peptidomimetics [8]: somewhat lower uptake levels

Molecule: CSCC[C@H](NC(=O)[C@H](Cc1c[nH]c2ccccc12)NC(=O)CNC(=O)[C@H](Cc1ccc(O)cc1)NC(=O)[C@H](C)NC(=O)[C@@H](CCC(=O)O)NC(=O)[C@@H](CCC(=O)O)NC(=O)[C@@H](CCC(=O)O)NC(=O)[C@@H](CCC(=O)O)NC(=O)[C@@H](CCC(=O)O)NC(=O)[C@@H](CCC(=O)O)NC(=O)CN1CCN(CC(=O)O)CCN(CC(=O)O)CCN(CC(=O)O)CC1)C(=O)N[C@@H](CC(=O)O)C(=O)N[C@@H](Cc1ccccc1)C(N)=O [^177Lu-PP-F11, metal not drawn]
intact peptide in urine and blood [10]: no intact peptide could be found
percentage of intact radioligand present in the blood [7]: 5.5%

Molecule: CCCC[C@H](NC(=O)[C@H](Cc1c[nH]c2ccccc12)NC(=O)CNC(=O)[C@H](Cc1ccc(O)cc1)NC(=O)[C@H](C)NC(=O)[C@@H](CCC(=O)O)NC(=O)[C@@H](CCC(=O)O)NC(=O)[C@@H](CCC(=O)O)NC(=O)[C@@H](CCC(=O)O)NC(=O)[C@@H](CCC(=O)O)NC(=O)[C@@H](CCC(=O)O)NC(=O)CN1CCN(CC(=O)O)CCN(CC(=O)O)CCN(CC(=O)O)CC1)C(=O)N[C@@H](CC(=O)O)C(=O)N[C@@H](Cc1ccccc1)C(N)=O [^177Lu-PP-F11N, DOTA-DGlu-DGlu-DGlu-DGlu-DGlu-DGlu-Ala-Tyr-Gly-Trp-Nle-Asp-Phe-NH2, metal not drawn]
percentage of intact radioligand present in the blood [7]: 12.7%

Molecule: [1,4,7,10-tetraazacyclodocecan-1,4,7,10-tetraacetic acid^0,D-Glu^1,DesGlu^2-6]minigastrin [^111In-DOTA-MG11]
biological half-life in vivo [11]: below five minutes

More lines, main results first:

tissue to tissue ratio at 1 h (in vivo [1]): 11.2 ± 0.8
tissue uptake at 1 h (in vivo [1]; kidney uptake): 2.4 ± 0.2 %ID/g
tissue uptake at 1 h (in vivo [1]; [12]): 27 ± 0.2 %ID/g
Molecule: CCCC[C@@H](C(=O)N[C@@H](CC(=O)O)C(=O)N[C@@H](Cc1cccc2ccccc12)C(N)=O)N(C)C(=O)[C@H](Cc1c[nH]c2ccccc12)NC(=O)CCNC(=O)CC(O)CNC(=O)CC(O)CNC(=O)CN1CCN(CC(=O)O)CCN(CC(=O)O)CCN(CC(=O)O)CC1 (single isomer, unassigned) [^68Ga-DOTA-MGSA, ^68Ga-DOTA-GABOB-GABOB-βAla-Trp-(NMe)Nle-Asp-1Nal-NH2, metal not drawn]

accumulation of radioactivity in kidneys compared to ^177Lu-DOTA-MGS5 [2]: significantly lower
tissue to tissue ratio at 4 h (in vivo [3]): 16.7 ± 2.7
tissue uptake at 4 h (in vivo [3]; kidney uptake): 2 ± 0.3 %ID/g
tissue uptake at 4 h (in vivo [3]; [12]): 32.1 ± 4.1 %ID/g
tissue uptake at 1 h (in vivo [4]): 56.3 ± 9.1 %ID/g
tissue uptake at 168 h (in vivo [4]): 1.2 ± 0.5 %ID/g
Molecule: CCCC[C@@H](C(=O)N[C@@H](CC(=O)O)C(=O)N[C@@H](Cc1cccc2ccccc12)C(N)=O)N(C)C(=O)[C@H](Cc1c[nH]c2ccccc12)NC(=O)CCNC(=O)CC(O)CNC(=O)CC(O)CNC(=O)CN1CCN(CC(=O)O)CCN(CC(=O)O)CCN(CC(=O)O)CC1 (single isomer, unassigned) [^177Lu-DOTA-MGSA, ^177Lu-DOTA-GABOB-GABOB-βAla-Trp-(NMe)Nle-Asp-1Nal-NH2, metal not drawn]

IC50 (CCK2R): 310 ± 20 pM
Molecule: CCCC[C@@H](C(=O)N[C@@H](CC(=O)O)C(=O)N[C@@H](Cc1cccc2ccccc12)C(N)=O)N(C)C(=O)[C@H](Cc1c[nH]c2ccccc12)NC(=O)CCNC(=O)CCCNC(=O)CCCNC(=O)CN1CCN(CC(=O)O)CCN(CC(=O)O)CCN(CC(=O)O)CC1 [DOTA-MGSB, DOTA-Gaba-Gaba-βAla-Trp-(NMe)Nle-Asp-1Nal-NH2] ({DOTA-GABA-GABA-βAla}-W[NMeNle]D[1Nal]-NH2)

IC50 (CCK2R): 160 ± 10 pM
Molecule: CCCC[C@@H](C(=O)N[C@@H](CC(=O)O)C(=O)N[C@@H](Cc1cccc2ccccc12)C(N)=O)N(C)C(=O)[C@H](Cc1c[nH]c2ccccc12)NC(=O)CCNC(=O)CC[C@@H](NC(=O)CC[C@@H](NC(=O)CN1CCN(CC(=O)O)CCN(CC(=O)O)CCN(CC(=O)O)CC1)C(=O)O)C(=O)O [DOTA-MGSC, DOTA-γDGlu-γDGlu-βAla-Trp-(NMe)Nle-Asp-1Nal-NH2] ({DOTA-d(γGlu)-d(γGlu)-βAla}-W[NMeNle]D[1Nal]-NH2)

tissue to tissue ratio at 1 h (in vivo [1]): 14.5 ± 0.6
tissue uptake at 1 h (in vivo [1]; kidney uptake): 2.5 ± 0.1 %ID/g
tissue uptake at 1 h (in vivo [1]; [12]): 36 ± 1.4 %ID/g
Molecule: CCCC[C@@H](C(=O)N[C@@H](CC(=O)O)C(=O)N[C@@H](Cc1cccc2ccccc12)C(N)=O)N(C)C(=O)[C@H](Cc1c[nH]c2ccccc12)NC(=O)CCNC(=O)CC[C@@H](NC(=O)CC[C@@H](NC(=O)CN1CCN(CC(=O)O)CCN(CC(=O)O)CCN(CC(=O)O)CC1)C(=O)O)C(=O)O [^68Ga-DOTA-MGSC, ^68Ga-DOTA-γDGlu-γDGlu-βAla-Trp-(NMe)Nle-Asp-1Nal-NH2, metal not drawn] ({DOTA-d(γGlu)-d(γGlu)-βAla}-W[NMeNle]D[1Nal]-NH2)

percentage of intact radioligand present in the blood [7]: 56.8%
Molecule: CCCC[C@@H](C(=O)N[C@@H](CC(=O)O)C(=O)N[C@@H](Cc1cccc2ccccc12)C(N)=O)N(C)C(=O)[C@H](Cc1c[nH]c2ccccc12)NC(=O)CNC(=O)[C@H](Cc1ccc(O)cc1)NC(=O)[C@@H]1CCCN1C(=O)[C@@H](CCC(=O)O)NC(=O)CN1CCN(CC(=O)O)CCN(CC(=O)O)CCN(CC(=O)O)CC1 [^177Lu-DOTA-MGS8, metal not drawn] ({DOTA}-[dE]PYGW[NMeNle]D[1Nal]-NH2; C-terminus assumed)
tumour uptake in A431-CCK2R xenografts [9]: 34.7±9.4 % IA/g

Reference: patent US20240091390A1, “IMPROVED CHOLECYSTOKININ-2 RECEPTOR (CCK2R) TARGETING FOR DIAGNOSIS AND THERAPY” (Medizinische Universität Innsbruck, priority 2021, published 2024)
